Data published in patent US8673884B2 (priority 2008, dated 2014).

Tests used:
dihydrofolic reductase = biological target: T1, dihydrofolic reductase (Homo sapiens, UniProt P00374); details: Baker and Jordaan, J. Med. Chem. 1965; cited from earlier work
T1 sequence (P00374 1-187): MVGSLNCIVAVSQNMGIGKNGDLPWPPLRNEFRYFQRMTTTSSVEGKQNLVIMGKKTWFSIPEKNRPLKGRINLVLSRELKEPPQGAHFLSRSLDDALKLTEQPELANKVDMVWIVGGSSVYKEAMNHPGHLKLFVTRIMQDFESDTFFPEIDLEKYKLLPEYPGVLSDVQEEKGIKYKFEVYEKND

[1] = tested on: human influenza H1N1 virus, A/HK/54/98; format: cell-based
H5N1 virus = format: cell-based, influenza A H5N1 virus
MDCK cells = test: Cell viability test (MTT); details: 100 uM
H1N1 virus = format: cell-based, influenza A H1N1 virus
[2] = tested on: Avian influenza H5N1 virus, A/Vietnam/1203/04; format: cell-based
[3] = tested on: Primary human blood macrophages; test: Cell viability test (MTT); details: 100 uM

SMILES | inhibition of dihydrofolic reductase (dihydrofolic reductase) | inhibition of replication of H1N1 virus (in words) [1] | level of H5N1 viruses on the surface of MDCK cells (H5N1 virus) | degree of cytotoxicity (MTT, OD560-OD670 of sample / DMSO) (MDCK cells; 72 hours, relative to DMSO) | cytotoxicity (in words) (MDCK cells; compared with DMSO) | level of H1N1 viruses on the surface of MDCK cells (H1N1 virus) | inhibition of replication of H5N1 virus (in words) [2] | degree of cytotoxicity (MTT, OD560-OD670 of sample / DMSO) ([3]; 72 hours, primary human blood macrophages, relative to DMSO) | cytotoxicity (in words) ([3]; primary macrophages, compared with DMSO) | H5N1 virus titer [2]
Cc1nc(N)nc(O)c1CCCNc1ccc(/C=C/C(=O)CCl)cc1 [NSC#89853, 4-(4-((3-(2-amino-4-hydroxy-6-methyl-5-pyrimidinyl)propyl)amino)phenyl)-1-chloro-3-buten-2-one] | inhibitor | inhibits the replication | lower | 2.2 | does not display cytotoxicity | lower | inhibits the replication | 1.1 | does not display cytotoxicity | –
CCOC(=O)C1=C[C@@H](OC(CC)CC)[C@H](NC(C)=O)[C@@H](N)C1 [oseltamivir, reference compound] | – | – | lower | – | – | lower | – | – | – | 2.46 × 10^6 TCID50/ml
